What all share (type): cell-based
One assay concerns P. aeruginosa APAE1009. The assay can be described thus: MIC assay, aminoglycoside-resistant P. aeruginosa APAE1009. The following applies: origin RJ - Greece; for MIC (μg/ml) APAE1009: phenotype AAC(6′)-I + Efflux; for MIC: Pseudomonas aeruginosa, APAE1009, phenotype AAC(6′)-I + Efflux, read-out: MIC (μg/ml) APAE1009. The protocol: (§1) The MIC assays were carried out in 150 μL volume in duplicate in 96-well clear flat-bottom plates. The bacterial suspension from an overnight culture growth in appropriate medium was added to a solution of test compound in 4% DMSO in water. Final bacterial inoculum was approximately 10^5-10^6 CFU/well. The percent growth of the bacteria in test wells relative to that observed for a well containing no compound was determined by measuring absorbance at 595 nm (A595) after 24 h. […] Both ampicillin and tetracycline are used as antibiotic-positive controls in each screening assay for E. coli, S. aureus and K. pneumoniae. Ciprofloxacin is used as an antibiotic-positive control in each screening assay for P. aeruginosa. Amikacin is used as an antibiotic-positive control in each screening assay for A. baumannii. Each of the bacterial cultures that are available from ATCC (www.atcc.org) is identified by its ATCC number.
(§2) MIC assays were carried out as set forth in Example 20 above against certain aminoglycoside-resistant strains of Pseudomonas Aeruginosa.

For another assay, the system named is P. aeruginosa APAE1068. As to the kind of experiment: MIC assay, aminoglycoside-resistant P. aeruginosa APAE1068. The following applies: origin Focus - France; for MIC (μg/ml) APAE1068: phenotype AAC(6′)-I + Efflux; for MIC: Pseudomonas aeruginosa, APAE1068, phenotype AAC(6′)-I + Efflux, read-out: MIC (μg/ml) APAE1068. The procedure:
as §1, §2

For a further assay, the system named is P. aeruginosa APAE1058. As to the kind of experiment: MIC assay, aminoglycoside-resistant P. aeruginosa APAE1058. The following applies: origin CF - USA; for MIC (μg/ml) APAE1058: phenotype High level efflux; for MIC: Pseudomonas aeruginosa, APAE1058, phenotype High level efflux, read-out: MIC (μg/ml) APAE1058. The protocol:
as §1, §2

In another assay the test system is P. aeruginosa APAE040. As to the kind of experiment: MIC assay, aminoglycoside-resistant P. aeruginosa APAE040. The following applies: origin SPRI; for MIC (μg/ml) APAE040: phenotype AAC(3)-I; for MIC: Pseudomonas aeruginosa, APAE040, phenotype AAC(3)-I, read-out: MIC (μg/ml) APAE040. The procedure: as §1, §2
In a further assay the test system is P. aeruginosa APAE042. The assay can be described thus: MIC assay, aminoglycoside-resistant P. aeruginosa APAE042. The following applies: origin SPRI; for MIC (μg/ml) APAE042: phenotype AAC(6′)-II; for MIC: Pseudomonas aeruginosa, APAE042, phenotype AAC(6′)-II, read-out: MIC (μg/ml) APAE042. The procedure: as §1, §2
Assay [1] relates to aminoglycoside-resistant Pseudomonas aeruginosa. As to the kind of experiment: MIC assays against aminoglycoside-resistant strains of Pseudomonas aeruginosa, summary in words. The following applies: particularly strains expressing efflux-based resistance alone or with AMEs; in comparison to compound 10 and comparative compounds A and B. The procedure: as §1, §2
The test system of a further assay is P. aeruginosa ATCC 27853. As to the kind of experiment: MIC assay, P. aeruginosa ATCC 27853. The following applies: absorbance at 595 nm after 24 h; for MIC: Pseudomonas aeruginosa, ATCC27853, read-out: MIC (μg/ml) P. aeruginosa ATCC 27853. The procedure:
as §1, with “CFU/well.” for “CFU/well. The percent growth of the bacteria in test wells relative to that observed for a well containing no compound was determined by measuring absorbance at 595 nm (A595) after 24 h.”, “Ciprofloxacin is used as an antibiotic-positive control in each screening assay for P. aeruginosa.” left out

The next assay deals with S. aureus ATCC 29213. The assay can be described thus: MIC assay, S. aureus ATCC 29213. The following applies: absorbance at 595 nm after 24 h; for MIC: Staphylococcus aureus, ATCC29213, read-out: MIC (μg/ml) S. aureus ATCC 29213. The protocol:
as §1

A further assay concerns K. pneumoniae ATCC 10031. As to the kind of experiment: MIC assay, K. pneumoniae ATCC 10031. The following applies: absorbance at 595 nm after 24 h; for MIC: Klebsiella pneumoniae, ATCC10031, read-out: MIC (μg/ml) K. pneumoniae ATCC 10031. The procedure: as §1
The next assay has as its system A. baumannii ATCC 19606. As to the kind of experiment: MIC assay, A. baumannii ATCC 19606. The following applies: absorbance at 595 nm after 24 h; for MIC: Acinetobacter baumannii, ATCC19606, read-out: MIC (μg/ml) A. baumannii ATCC 19606. The protocol: as §1
The test system of the next assay is E. coli ATCC 25922. As to the kind of experiment: MIC assay, E. coli ATCC 25922. The following applies: absorbance at 595 nm after 24 h; for MIC: Escherichia coli, ATCC25922, read-out: MIC (μg/ml) E. coli ATCC 25922. The procedure:
as §1, with “CFU/well.” for “CFU/well. The percent growth of the bacteria in test wells relative to that observed for a well containing no compound was determined by measuring absorbance at 595 nm (A595) after 24 h.”, “Ciprofloxacin is used as an antibiotic-positive control in each screening assay for P. aeruginosa.” left out

The values below come from patent publication US20080300199A1, “ANTIBACTERIAL 1,4,5-SUBSTITUTED AMINOGLYCOSIDE ANALOGS” (Achaogen Inc., priority 2007, published 2008).

The structures appear in SMILES notation. Converted amounts (≈) assume the structure as drawn. Bounds are passed on as bounds.

As to `NCC1C=CC(N)C(OC2C(N)CC(N)C(O)C2OC2OC(CO)C(OC3OC(CN)C(O)C(O)C3N)C2O)O1` (centres unmarked) [A, 3′,4′-Di-deoxy-3′,4′-Di-dehydro-neomycin-B, reference compound], the “MIC (μg/ml) APAE1009” value with P. aeruginosa APAE1009 is above 8 µg/mL. Also, the “MIC (μg/ml) APAE1068” value in the assay with P. aeruginosa APAE1068 worked out at 8 µg/mL. In addition, the “MIC (μg/ml) APAE1058” value with P. aeruginosa APAE1058 is above 8 µg/mL. Besides, in the assay with P. aeruginosa APAE040, the “MIC (μg/ml) APAE040” value stood at 4 µg/mL (≈ 6.89 µM). The “MIC (μg/ml) APAE042” value in the assay with P. aeruginosa APAE042 turned out to be 4 µg/mL (≈ 6.89 µM).
Consider `NCC[C@H](O)C(=O)N[C@@H]1C[C@H](N)[C@@H](O[C@H]2O[C@H](CN)C=C[C@H]2N)[C@H](O[C@@H]2O[C@H](CO)[C@@H](O[C@H]3O[C@@H](CN)[C@@H](O)[C@H](O)[C@H]3N)[C@H]2O)[C@H]1O` [Compound 11], for which the “activity on aminoglycoside-resistant Pseudomonas aeruginosa strains” value in assay [1] was “superior activity”. In addition, the MIC is 2 µg/mL with P. aeruginosa APAE1009; 2 µg/mL with P. aeruginosa APAE1068; 1 to 8 µg/mL (≈ 1.47 to 11.7 µM) in the assay on P. aeruginosa ATCC 27853; below 1 µg/mL with S. aureus ATCC 29213; 16 µg/mL (≈ 23.5 µM) in the assay on P. aeruginosa APAE1058; below 1 µg/mL in the assay with K. pneumoniae ATCC 10031. The MIC with A. baumannii ATCC 19606 is 1 to 8 µg/mL (≈ 1.47 to 11.7 µM); with E. coli ATCC 25922, 1 to 8 µg/mL (≈ 1.47 to 11.7 µM); with P. aeruginosa APAE040, 1 µg/mL (≈ 1.47 µM); with P. aeruginosa APAE042, 0.5 µg/mL (≈ 0.733 µM).
`NCC[C@H](O)C(=O)N[C@@H]1C[C@H](N)[C@@H](O[C@H]2O[C@H](CN)CC[C@H]2N)[C@H](O[C@@H]2O[C@H](CO)[C@@H](O[C@H]3O[C@@H](CN)[C@@H](O)[C@H](O)[C@H]3N)[C@H]2O)[C@H]1O` [Compound 10, 3′,4′-Di-deoxy-N-1 haba neomycin]: the MIC in the assay with P. aeruginosa APAE1009 is 4 µg/mL; in the assay with P. aeruginosa APAE1068, 8 µg/mL; in the assay on P. aeruginosa ATCC 27853, below 1 µg/mL; in the assay on S. aureus ATCC 29213, below 1 µg/mL; in the assay on P. aeruginosa APAE1058, 32 µg/mL (≈ 46.8 µM); with K. pneumoniae ATCC 10031 it was below 1 µg/mL. Further, the MIC in the assay with A. baumannii ATCC 19606 was 1 to 8 µg/mL (≈ 1.46 to 11.7 µM); with E. coli ATCC 25922 it was below 1 µg/mL; in the assay on P. aeruginosa APAE040, 2 µg/mL (≈ 2.93 µM); in the assay on P. aeruginosa APAE042, 1 µg/mL (≈ 1.46 µM).
With `NCC[C@H](O)C(=O)N[C@@H]1C[C@H](N)[C@@H](O[C@H]2O[C@H](CN)[C@@H](O)[C@H](O)[C@H]2O)[C@H](O)[C@H]1O[C@H]1O[C@H](CO)[C@@H](O)[C@H](N)[C@H]1O` [Amikacin, reference compound], the MIC in the assay with P. aeruginosa ATCC 27853 was 1 to 8 µg/mL (≈ 1.71 to 13.7 µM); with S. aureus ATCC 29213, 1 to 8 µg/mL (≈ 1.71 to 13.7 µM); in the assay on K. pneumoniae ATCC 10031, below 1 µg/mL; in the assay on A. baumannii ATCC 19606 it was above 8 µg/mL; in the assay with E. coli ATCC 25922, 1 to 8 µg/mL (≈ 1.71 to 13.7 µM).
For the compound `NCC[C@H](O)C(=O)NC1CC(N)C(OC2OC(CN)CC(O)C2N)C(OC2OC(CO)C(OC3OC(CN)C(O)C(O)C3N)C2O)C1O` (some centres unmarked) [Compound 18, 4′-Deoxy-N-1 haba neomycin], the “MIC (μg/ml) P. aeruginosa ATCC 27853” value in the assay on P. aeruginosa ATCC 27853 was “A (MIC's of 1.0 μg/mL or less = A)”. The “MIC (μg/ml) S. aureus ATCC 29213” value in the assay with S. aureus ATCC 29213 is “B (MIC's of greater than 1.0 μg/mL to 8.0 μg/mL = B)”. The “MIC (μg/ml) K. pneumoniae ATCC 10031” value in the assay with K. pneumoniae ATCC 10031 is on record as “A (MIC's of 1.0 μg/mL or less = A)”. Besides, in the assay with A. baumannii ATCC 19606, the “MIC (μg/ml) A. baumannii ATCC 19606” value is “B (MIC's of greater than 1.0 μg/mL to 8.0 μg/mL = B)”. In addition, in the assay on E. coli ATCC 25922, the “MIC (μg/ml) E. coli ATCC 25922” value is “B (MIC's of greater than 1.0 μg/mL to 8.0 μg/mL = B)”.
Turning to `NCC1CCC(N)C(OC2C(N)CC(N)C(O)C2OC2OC(CO)C(OC3OC(CN)C(O)C(O)C3N)C2O)O1` (centres unmarked) [B, 3′,4′-Di-deoxy-neomycin-B, reference compound], the “MIC (μg/ml) APAE1009” value in the assay with P. aeruginosa APAE1009 is above 8 µg/mL. For the same compound, in the assay on P. aeruginosa APAE1068, the “MIC (μg/ml) APAE1068” value is 4 µg/mL. Also, in the assay with P. aeruginosa APAE1058, the “MIC (μg/ml) APAE1058” value was above 8 µg/mL. In the assay with P. aeruginosa APAE040, the “MIC (μg/ml) APAE040” value turned out to be 1 µg/mL (≈ 1.72 µM). In addition, in the assay on P. aeruginosa APAE042, the “MIC (μg/ml) APAE042” value was 2 µg/mL (≈ 3.43 µM).
